Reference: patent US7691382B2, “Antiviral polypeptides comprising tandem repeats of APOE 141-149 and variants thereof” (priority 2003, dated 2010)
“And” between values parts separate entries of the source, which are not always exact repeats. Equal values may be shown once. Read-outs that look alike come from different tables or passages of the source. Values belong to the compound of their own block, whether it stands above or below them. Peptide text beside a SMILES is read from it.

Tests used:
[1] = system: HSV2 clinical isolates; type: cell-based, Human herpes simplex virus type 2
Protocol: Plaque assays were performed. The methodology was as described in previous Examples for HSV1 plaque assays (including usage of Vero cells) except HSV2 clinical isolates (provided by Prof. Anthony Hart of Liverpool University) were employed instead.

[2] = system: HSV1; type: cell-based, Human herpes simplex virus type 1
Outline: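 Plaque reduction in Vero monolayers: ~100 pfu HSV1 pre-mixed 10 min at 37 °C with acetylated/amidated peptides in 0.5% FCS medium, inoculated 60–80 min, then carboxymethylcellulose overlay for 22 or 40 h. Plaques counted after fixing and carbol fuchsin staining; IC50 from % of control versus peptide concentration.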

[3] = system: HSV2; assay: HSV2 plaque formation in HEp-2 cells (Example 1); type: cell-based, Human herpes simplex virus type 2; conditions: for HSV2 plaque formation in HEp-2 cells, plaque count, wells 1-4: 1 hour, listed as ApoE141-149dp; for HSV2 plaque formation in HEp-2 cells, Mean ± sd: untreated 152 ± 10.7
Protocol: FIG. 2 and table 2 show typical results for the test for anti-HSV2 activity. The assay was carried out as for the anti-HSV1 assay, except Hep-2 cells were used rather than Vero cells. ApoE141-149dp produced a 50% reduction in plaque number at a concentration of around 20 μM. Again note that the peptide was only present in the experimental system for 1 hour.

[4] = system: HSV1; assay: HSV1 plaque formation in Vero cells (Example 1); type: cell-based, Human herpes simplex virus type 1; conditions: for HSV1 plaque formation in Vero cells, plaque count, wells 1-4: 1 hour, listed as ApoE141-149dp; for HSV1 plaque formation in Vero cells, Mean ± sd: untreated 107 ± 14.2
Protocol: FIG. 1 and table 1 show typical results for the test for anti-HSV1 activity. The assay involved treating confluent Vero cells in 24-well plates with medium containing virus and varying amounts of peptide for one hour, followed by removal of this inoculum, and addition of viscous ‘overlay’ medium, containing 0.2% high viscosity carboxymethylcellulose. The overlay medium only allows infection of those cells immediately adjacent to an infected cell. After 2 days incubation and then fixation and staining, small patches of infected cells (or ‘plaques’) are visible, which are counted. Each of these corresponds to the infection of a single cell during the one hour inoculation. ApoE141-149dp produced a 40% reduction in plaque number at a concentration of around 20 μM. Note the peptide was only present in the experimental system for 1 hour.

[5] = system: HIV-1; conditions: for % Decrease in HIV p24 Production, Exp. 1-3: listed as ApoE141-149dp
Protocol: The assay was carried out by incubating HIV infected U937 cells in the presence of various levels of peptide for 7 days, followed by assay for levels of the HIV protein p24 in the cells using an Enzyme Linked Immunoabsorbant Assay (ELISA) technique.

[6] = at a concentration of around 20 μM, peptide present 1 hour
[7] = peptide 10 μM in virus inoculum
[8] = peptide 20 μM in virus inoculum
[9] = peptide 30 μM in virus inoculum
[10] = peptide 40 μM in virus inoculum
[11] = peptide 10 μM, U937 cells, 7 days
[12] = peptide 20 μM, U937 cells, 7 days
[13] = peptide 30 μM, U937 cells, 7 days
[14] = peptide 40 μM, U937 cells, 7 days
[15] = peptide 50 μM, U937 cells, 7 days

IC50 [1]: 9 µM | IC50 [2]: 16 µM
Compound: CC(=O)N[C@@H](Cc1c[nH]c2ccccc12)C(=O)N[C@@H](CCCNC(=N)N)C(=O)N[C@@H](CCCCN)C(=O)N[C@@H](Cc1c[nH]c2ccccc12)C(=O)N[C@@H](CCCNC(=N)N)C(=O)N[C@@H](CCCCN)C(=O)N[C@@H](CCCNC(=N)N)C(=O)N[C@@H](CC(C)C)C(=O)N[C@@H](CC(C)C)C(=O)N[C@@H](CC(C)C)C(=O)N[C@@H](CCCNC(=N)N)C(=O)N[C@@H](CCCCN)C(=O)N[C@@H](CC(C)C)C(=O)N[C@@H](CCCNC(=N)N)C(=O)N[C@@H](CCCCN)C(=O)N[C@@H](CCCNC(=N)N)C(=O)N[C@@H](CC(C)C)C(=O)N[C@@H](CC(C)C)C(N)=O [MU 114] (Ac-WRKWRKRLLLRKLRKRLL-NH2)

Compound: CC(C)C[C@H](NC(=O)[C@H](CC(C)C)NC(=O)[C@H](CCCNC(=N)N)NC(=O)[C@H](CCCCN)NC(=O)[C@H](CCCNC(=N)N)NC(=O)[C@H](CC(C)C)NC(=O)[C@H](CCCCN)NC(=O)[C@H](CCCNC(=N)N)NC(=O)[C@H](CC(C)C)NC(=O)[C@H](CC(C)C)NC(=O)[C@H](CC(C)C)NC(=O)[C@H](CCCNC(=N)N)NC(=O)[C@H](CCCCN)NC(=O)[C@H](CCCNC(=N)N)NC(=O)[C@H](CC(C)C)NC(=O)[C@H](CCCCN)NC(=O)[C@H](CCCNC(=N)N)NC(=O)[C@@H](N)CC(C)C)C(=O)O [GIN 1] (H-LRKLRKRLLLRKLRKRLL-OH)
reduction in plaque number (HSV2) [3, 6]: 50% | HSV2 plaque formation in HEp-2 cells, plaque count, wells 1-4 ([3]; peptide 5 μM in virus inoculum): 160 and 134 and 140 and 130 | HSV2 plaque formation in HEp-2 cells, Mean ± sd ([3]; peptide 5 μM): 141 ± 13.3 | HSV2 plaque formation in HEp-2 cells, plaque count, wells 1-4 [3, 7]: 125 and 113 and 131 and 132 | HSV2 plaque formation in HEp-2 cells, Mean ± sd ([3]; peptide 10 μM): 125 ± 8.7 | HSV2 plaque formation in HEp-2 cells, plaque count, wells 1-4 [3, 8]: 82 and 72 and 73 and 81 | HSV2 plaque formation in HEp-2 cells, Mean ± sd ([3]; peptide 20 μM): 77 ± 5.2 | HSV2 plaque formation in HEp-2 cells, plaque count, wells 1-4 [3, 9]: 76 and 77 and 71 and 72 | HSV2 plaque formation in HEp-2 cells, Mean ± sd ([3]; peptide 30 μM): 74 ± 2.9 | HSV2 plaque formation in HEp-2 cells, plaque count, wells 1-4 [3, 10]: 51 and 59 and 69 and 49 | HSV2 plaque formation in HEp-2 cells, Mean ± sd ([3]; peptide 40 μM): 57 ± 9.1 | reduction in plaque number (HSV1) [4, 6]: 40% | HSV1 plaque formation in Vero cells, plaque count, wells 1-4 ([4]; peptide 5 μM in virus inoculum): 129 and 106 and 103 and 100 | HSV1 plaque formation in Vero cells, Mean ± sd ([4]; peptide 5 μM): 110 ± 13.2 | HSV1 plaque formation in Vero cells, plaque count, wells 1-4 [4, 7]: 73 and 87 and 76 and 89 | HSV1 plaque formation in Vero cells, Mean ± sd ([4]; peptide 10 μM): 81 ± 7.9 | HSV1 plaque formation in Vero cells, plaque count, wells 1-4 [4, 8]: 68 and 67 and 63 | HSV1 plaque formation in Vero cells, Mean ± sd ([4]; peptide 20 μM): 65 ± 2.6 | HSV1 plaque formation in Vero cells, plaque count, wells 1-4 [4, 9]: 72 and 71 and 56 | HSV1 plaque formation in Vero cells, Mean ± sd ([4]; peptide 30 μM): 66 ± 9.0 | HSV1 plaque formation in Vero cells, plaque count, wells 1-4 [4, 10]: 64 and 65 and 53 and 68 | HSV1 plaque formation in Vero cells, Mean ± sd ([4]; peptide 40 μM): 63 ± 6.6 | IC50 [2]: 16.5 µM | efficacy for reducing HSV1 infectivity (in words) ([2]; Examples 2 and 3): good efficacy | activity against HIV, significance by ANOVA (in words) ([5]; FIG. 3, acutely infected U937 cells): significantly active | reduction in infectivity (HIV) ([5]; at 20 μM, U937 cells, 7 days): 95% | % Decrease in HIV p24 Production, Mean ± sd [5, 11]: 83.94 ± 11.84% | % Decrease in HIV p24 Production, Exp. 1-3 [5, 11]: 91.66% and 70.31% and 89.85% | % Decrease in HIV p24 Production, Mean ± sd [5, 12]: 95.02 ± 1.89% | % Decrease in HIV p24 Production, Exp. 1-3 [5, 12]: 96.87% and 95.08% and 93.10% | % Decrease in HIV p24 Production, Mean ± sd [5, 13]: 90.78 ± 4.49% | % Decrease in HIV p24 Production, Exp. 1-3 [5, 13]: 95.94% and 88.63% and 87.77% | % Decrease in HIV p24 Production, Mean ± sd [5, 14]: 95.87 ± 0.81% | % Decrease in HIV p24 Production, Exp. 1-3 [5, 14]: 96.80% and 95.47% and 95.33% | % Decrease in HIV p24 Production, Mean ± sd [5, 15]: 94.79 ± 1.34% | % Decrease in HIV p24 Production, Exp. 1-3 [5, 15]: 95.73% and 93.25% and 95.38%

IC50 [1]: < 3.3 µM
Compound: CC(=O)N[C@@H](Cc1c[nH]c2ccccc12)C(=O)N[C@@H](CCCNC(=N)N)C(=O)N[C@@H](CCCCN)C(=O)N[C@@H](Cc1c[nH]c2ccccc12)C(=O)N[C@@H](CCCNC(=N)N)C(=O)N[C@@H](CCCCN)C(=O)N[C@@H](CCCNC(=N)N)C(=O)N[C@@H](Cc1c[nH]c2ccccc12)C(=O)N[C@@H](Cc1c[nH]c2ccccc12)C(=O)N[C@@H](Cc1c[nH]c2ccccc12)C(=O)N[C@@H](CCCNC(=N)N)C(=O)N[C@@H](CCCCN)C(=O)N[C@@H](Cc1c[nH]c2ccccc12)C(=O)N[C@@H](CCCNC(=N)N)C(=O)N[C@@H](CCCCN)C(=O)N[C@@H](CCCNC(=N)N)C(=O)N[C@@H](Cc1c[nH]c2ccccc12)C(=O)N[C@@H](Cc1c[nH]c2ccccc12)C(N)=O [GIN 7] (Ac-WRKWRKRWWWRKWRKRWW-NH2)
